Experiments:
Assay type in all cases: ADME
Cytochrome P450 2B6 = target: T1, Cytochrome P450 2B6 (Homo sapiens, UniProt P20813); experiment: Drug metabolism in human liver microsomes assessed as monoclonal antibody-mediated inhibition of CYP2B6-mediated (R)-1-(4-(4-fluoro-2-(hydroxymethyl)-1H-indol-5-yloxy)-5-methylpyrrolo[1,2-f][1,2,4]triazin-6-yloxy)propan-2-ol formation at 2 and 20 uM for 30 mins by LC/MS analysis; details: 0.5 h
T1 sequence (P20813 whole entry): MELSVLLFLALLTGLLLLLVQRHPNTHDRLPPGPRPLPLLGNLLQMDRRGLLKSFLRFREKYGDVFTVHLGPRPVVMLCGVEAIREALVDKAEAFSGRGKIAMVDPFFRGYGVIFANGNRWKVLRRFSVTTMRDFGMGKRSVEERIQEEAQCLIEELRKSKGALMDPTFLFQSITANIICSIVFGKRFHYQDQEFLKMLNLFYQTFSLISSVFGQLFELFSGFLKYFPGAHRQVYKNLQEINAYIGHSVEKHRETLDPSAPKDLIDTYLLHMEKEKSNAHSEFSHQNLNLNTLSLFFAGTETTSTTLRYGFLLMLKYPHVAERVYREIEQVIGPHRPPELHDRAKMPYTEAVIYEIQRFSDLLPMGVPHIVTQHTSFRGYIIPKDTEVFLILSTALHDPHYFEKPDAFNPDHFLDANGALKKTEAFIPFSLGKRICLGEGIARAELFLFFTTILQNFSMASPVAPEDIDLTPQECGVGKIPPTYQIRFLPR

Cytochrome P450 2A6 = target: T2, Cytochrome P450 2A6 (Homo sapiens, UniProt P11509); experiment: Drug metabolism assessed as human CYP2A6-mediated (R)-1-(4-(4-fluoro-2-(hydroxymethyl)-1H-indol-5-yloxy)-5-methylpyrrolo[1,2-f][1,2,4]triazin-6-yloxy)propan-2-ol formation at 2 and 20 uM for 20 mins by LC/MS analysis in presence of NADPH; details: recombinant enzyme
T2 sequence (P11509 whole entry): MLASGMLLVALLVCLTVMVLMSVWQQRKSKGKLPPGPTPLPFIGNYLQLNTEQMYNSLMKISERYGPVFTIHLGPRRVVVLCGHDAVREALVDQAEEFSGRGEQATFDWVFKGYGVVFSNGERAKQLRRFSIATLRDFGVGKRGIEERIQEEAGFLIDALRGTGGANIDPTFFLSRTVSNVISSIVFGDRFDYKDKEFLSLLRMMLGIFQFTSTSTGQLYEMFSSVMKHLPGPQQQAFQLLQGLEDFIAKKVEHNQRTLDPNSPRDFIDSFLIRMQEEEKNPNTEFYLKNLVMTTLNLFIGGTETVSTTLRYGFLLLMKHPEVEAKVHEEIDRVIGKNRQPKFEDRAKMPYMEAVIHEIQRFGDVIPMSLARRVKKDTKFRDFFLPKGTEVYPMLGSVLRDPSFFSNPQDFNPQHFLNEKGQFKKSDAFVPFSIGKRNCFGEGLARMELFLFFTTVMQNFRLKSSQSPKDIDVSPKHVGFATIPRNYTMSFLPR

Cytochrome P450 1B1 = Cytochrome P450 1B1 (Homo sapiens, UniProt Q16678); experiment: Drug metabolism assessed as human CYP1B1-mediated (R)-1-(4-(4-fluoro-2-(hydroxymethyl)-1H-indol-5-yloxy)-5-methylpyrrolo[1,2-f][1,2,4]triazin-6-yloxy)propan-2-ol formation at 2 and 20 uM for 20 mins by LC/MS analysis in presence of NADPH; details: recombinant enzyme
Sulfotransferase 1E1 = Sulfotransferase 1E1 (Homo sapiens, UniProt P49888); experiment: Drug metabolism assessed as human SULT1E1-mediated (R)-1-(4-(4-fluoro-2-methyl-1H-indol-5-yloxy)-5-methylpyrrolo[1,2-f][1,2,4]triazin-6-yloxy)propane-2-sulfonic acid formation at 2 and 20 uM for 30 mins by LC/MS analysis in presence of PAPS; details: 0.5 h
Cytochrome P450 1A2 [1] = target: T3, Cytochrome P450 1A2 (Homo sapiens, UniProt P05177); experiment: Activity of human CYP1A2 assessed as intrinsic clearance for enzyme-mediated (R)-1-(4-(4-fluoro-2-(hydroxymethyl)-1H-indol-5-yloxy)-5-methylpyrrolo[1,2-f][1,2,4]triazin-6-yloxy)propan-2-ol formation per picomole enzyme in presence of NADPH
T3 sequence (P05177 whole entry): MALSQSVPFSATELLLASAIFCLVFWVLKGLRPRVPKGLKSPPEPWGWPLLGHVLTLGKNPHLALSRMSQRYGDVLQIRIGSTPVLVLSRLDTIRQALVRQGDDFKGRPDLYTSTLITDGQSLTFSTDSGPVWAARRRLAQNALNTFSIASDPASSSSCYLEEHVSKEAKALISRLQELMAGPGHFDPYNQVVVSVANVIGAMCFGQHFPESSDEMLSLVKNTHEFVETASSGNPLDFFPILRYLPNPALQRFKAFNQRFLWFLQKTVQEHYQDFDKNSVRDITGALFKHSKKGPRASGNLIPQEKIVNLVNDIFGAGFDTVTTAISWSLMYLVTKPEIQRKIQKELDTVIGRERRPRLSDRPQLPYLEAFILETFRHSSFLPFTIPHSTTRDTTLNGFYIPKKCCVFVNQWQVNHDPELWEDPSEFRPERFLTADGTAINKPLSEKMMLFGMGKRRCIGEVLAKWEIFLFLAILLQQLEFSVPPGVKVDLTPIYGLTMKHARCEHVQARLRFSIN

Cytochrome P450 2D6 = Cytochrome P450 2D6 (Homo sapiens, UniProt P10635); experiment: Drug metabolism in human liver microsomes assessed as 1 uM quinidine-mediated inhibition of CYP2D6-mediated(R)-1-(4-(4-fluoro-2-(hydroxymethyl)-1H-indol-5-yloxy)-5-methylpyrrolo[1,2-f][1,2,4]triazin-6-yloxy)propan-2-ol formation at 2 and 20 uM for 30 mins by LC/MS analysis; details: 0.5 h
Sulfotransferase 1B1 = Sulfotransferase 1B1 (Homo sapiens, UniProt O43704); experiment: Drug metabolism assessed as human SULT1B1-mediated (R)-1-(4-(4-fluoro-2-methyl-1H-indol-5-yloxy)-5-methylpyrrolo[1,2-f][1,2,4]triazin-6-yloxy)propane-2-sulfonic acid formation at 2 and 20 uM for 30 mins by LC/MS analysis in presence of PAPS; details: 0.5 h
Cytochrome P450 2E1 = Cytochrome P450 2E1 (Homo sapiens, UniProt P05181); experiment: Drug metabolism in human liver microsomes assessed as 50 uM diethyldithiocarbamate-mediated inhibition of CYP2E1-mediated (R)-1-(4-(4-fluoro-2-(hydroxymethyl)-1H-indol-5-yloxy)-5-methylpyrrolo[1,2-f][1,2,4]triazin-6-yloxy)propan-2-ol formation at 2 and 20 uM for 30 mins by LC/MS analysis; details: 0.5 h
Cytochrome P450 1A2 [2] = target: T3, Cytochrome P450 1A2; experiment: Drug metabolism assessed as human CYP1A2-mediated (R)-1-(4-(4-fluoro-2-(hydroxymethyl)-1H-indol-5-yloxy)-5-methylpyrrolo[1,2-f][1,2,4]triazin-6-yloxy)propan-2-ol formation at 2 and 20 uM for 20 mins by LC/MS analysis in presence of NADPH; details: recombinant enzyme
Liver microsome = experiment: Drug metabolism in human liver microsomes assessed as (R)-1-(4-(4-fluoro-2-(hydroxymethyl)-1H-indol-5-yloxy)-5-methylpyrrolo[1,2-f][1,2,4]triazin-6-yloxy)propan-2-ol formation at 2 and 20 uM for 30 mins by LC/MS analysis in presence of antibody for CYP3A4/5; details: 0.5 h

Chain of Sulfotransferase 1E1 (P49888 whole entry): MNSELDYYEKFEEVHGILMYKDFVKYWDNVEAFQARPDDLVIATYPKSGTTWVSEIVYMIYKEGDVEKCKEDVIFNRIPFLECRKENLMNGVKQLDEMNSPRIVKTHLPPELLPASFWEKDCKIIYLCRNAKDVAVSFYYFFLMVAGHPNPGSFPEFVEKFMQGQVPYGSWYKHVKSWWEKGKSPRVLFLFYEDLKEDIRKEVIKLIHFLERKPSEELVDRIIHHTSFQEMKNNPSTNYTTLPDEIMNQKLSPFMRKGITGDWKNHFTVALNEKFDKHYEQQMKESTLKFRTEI
Chain of Cytochrome P450 2E1 (P05181 whole entry): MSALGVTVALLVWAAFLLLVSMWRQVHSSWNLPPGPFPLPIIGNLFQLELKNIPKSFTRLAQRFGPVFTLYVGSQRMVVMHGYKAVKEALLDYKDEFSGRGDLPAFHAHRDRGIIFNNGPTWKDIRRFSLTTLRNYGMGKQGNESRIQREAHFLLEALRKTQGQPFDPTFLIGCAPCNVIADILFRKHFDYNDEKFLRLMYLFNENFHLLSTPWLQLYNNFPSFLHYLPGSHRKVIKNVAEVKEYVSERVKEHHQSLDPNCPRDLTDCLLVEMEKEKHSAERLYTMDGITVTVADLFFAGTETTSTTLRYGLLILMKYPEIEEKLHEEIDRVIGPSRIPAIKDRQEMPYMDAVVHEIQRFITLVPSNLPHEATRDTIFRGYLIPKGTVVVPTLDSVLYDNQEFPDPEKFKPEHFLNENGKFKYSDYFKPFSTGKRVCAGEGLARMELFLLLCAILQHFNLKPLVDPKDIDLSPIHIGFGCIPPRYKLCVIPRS
Chain of Sulfotransferase 1B1 (O43704 whole entry): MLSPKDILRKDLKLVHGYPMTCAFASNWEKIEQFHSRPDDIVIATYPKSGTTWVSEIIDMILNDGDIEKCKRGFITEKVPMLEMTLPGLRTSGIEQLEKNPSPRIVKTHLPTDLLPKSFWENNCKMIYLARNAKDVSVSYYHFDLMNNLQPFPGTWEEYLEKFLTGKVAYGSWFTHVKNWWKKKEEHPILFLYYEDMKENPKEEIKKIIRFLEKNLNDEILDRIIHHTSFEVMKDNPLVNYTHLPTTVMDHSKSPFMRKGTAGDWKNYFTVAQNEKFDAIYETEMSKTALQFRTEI
Chain of Cytochrome P450 1B1 (Q16678 whole entry): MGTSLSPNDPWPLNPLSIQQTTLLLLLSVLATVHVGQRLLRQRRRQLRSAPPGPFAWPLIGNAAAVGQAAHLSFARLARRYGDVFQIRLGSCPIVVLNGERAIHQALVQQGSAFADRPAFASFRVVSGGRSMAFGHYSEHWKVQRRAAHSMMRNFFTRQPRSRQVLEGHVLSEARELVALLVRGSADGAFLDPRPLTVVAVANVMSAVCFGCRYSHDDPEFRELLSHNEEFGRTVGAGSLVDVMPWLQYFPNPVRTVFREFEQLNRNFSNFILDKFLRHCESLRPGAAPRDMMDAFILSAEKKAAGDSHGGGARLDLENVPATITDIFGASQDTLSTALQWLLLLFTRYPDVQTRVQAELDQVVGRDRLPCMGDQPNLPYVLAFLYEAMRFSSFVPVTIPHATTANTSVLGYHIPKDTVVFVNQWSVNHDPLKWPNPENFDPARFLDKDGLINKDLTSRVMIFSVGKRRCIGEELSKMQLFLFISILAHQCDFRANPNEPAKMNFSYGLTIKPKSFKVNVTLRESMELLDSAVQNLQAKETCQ
Chain of Cytochrome P450 2D6 (P10635 whole entry): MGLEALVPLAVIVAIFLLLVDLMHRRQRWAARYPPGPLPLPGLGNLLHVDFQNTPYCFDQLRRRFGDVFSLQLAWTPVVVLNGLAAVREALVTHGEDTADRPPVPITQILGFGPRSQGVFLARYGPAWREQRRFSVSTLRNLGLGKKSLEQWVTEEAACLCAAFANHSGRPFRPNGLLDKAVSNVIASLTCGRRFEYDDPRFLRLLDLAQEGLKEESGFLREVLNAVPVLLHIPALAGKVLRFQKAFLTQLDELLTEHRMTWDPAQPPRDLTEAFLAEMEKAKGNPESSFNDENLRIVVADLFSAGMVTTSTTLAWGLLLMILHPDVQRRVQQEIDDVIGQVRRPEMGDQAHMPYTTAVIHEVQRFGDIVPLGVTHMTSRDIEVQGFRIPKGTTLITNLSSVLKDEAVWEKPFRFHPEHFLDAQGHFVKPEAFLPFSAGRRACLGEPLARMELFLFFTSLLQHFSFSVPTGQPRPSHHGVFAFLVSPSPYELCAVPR

With `Cc1cc2c(F)c(Oc3ncnn4cc(OC[C@@H](C)O)c(C)c34)ccc2[nH]1` [BRIVANIB] the Drug metabolism (Cytochrome P450 2B6) was “metabolite_detected”, the Drug metabolism (Cytochrome P450 2A6) was “metabolite_detected” and the Drug metabolism (Cytochrome P450 1B1) was “metabolite_detected”. For the same compound, the Drug metabolism (Sulfotransferase 1E1) was “metabolite_detected”, the CL (Cytochrome P450 1A2 [1]) was 0.031 µL/min and the Drug metabolism (Cytochrome P450 2D6) was “metabolite_detected”. The Drug metabolism (Sulfotransferase 1B1) was “metabolite_detected”, the Drug metabolism (Cytochrome P450 2E1) was “metabolite_detected” and the Drug metabolism (Cytochrome P450 1A2 [2]) was “metabolite_detected”. The Drug metabolism (Liver microsome) was “metabolite_not_detected”.
